In patent US20110318375A1, “Immunomodulatory Therapeutic Agents” (priority 2009, published 2011):
“Also recorded” adds a separate entry of the source. No end group written: not given here. PEG = not defined here

Legend:
[1] = tested on: Experimental Allergic Encephalomyelitis (EAE); test: Acute Experimental Allergic Encephalomyelitis mouse model; type: in vivo, mice; details: subcutaneous, dosed daily, every 3 days and weekly
Source text: The carboxy terminus of activated Fibrinopeptide A was considered to be the active portion of the peptide, the carboxy terminus was PEGylate (addition of Poly Ethylene Glycol). This molecule was used to perform an EAE study. This study was designed to mimic the study done by Ruhenstroth-Bauer in 1981 utilizing two of these peptides, and showing some albeit mild benefit. The synthetic PEGylated peptide was expected to perform considerably better than the non-PEGylated peptide. Synthetic non-PEGylated peptide A was used as a positive control to compare the PEGylated verses non-PEGylated peptides. The medications were administered subcutaneously, due to this route having some efficacy in the cytokine profiles.
Test article 2 (PEGylated peptide) dosed daily, every 3 days and weekly never even approached statistically significant benefit.
During the first 22 days of the study EAE development in mice treated with test article 1 (daily non-PEGylated peptide A) was very similar to the vehicle-treated mice. […] Disease worsened in test article 1-treated mice on days 27 and 28 and became very similar to disease severity to the mice in the vehicle-treated group.

Ponto Toro Virus = type: in vivo, mice; details: mouse, in vivo
cytokine panels = test: Cytokine panels for 24 hours after synthetic imf-C3, healthy volunteer; type: in vivo, human; details: followed for 24 hours
Protocol: After getting back the results of the Ponto Toro test and seeing no results from imf-C3, a healthy volunteer was given synthetic imf-C3 and cytokine panels were followed for 24 hours.

Substance	EAE development / activity versus vehicle-treated mice [1]	EAE development / activity versus vehicle-treated mice ([1]; listed as PEGylated Fibrinopeptide A)	results of the Ponto Toro test (Ponto Toro Virus)	changes in cytokine panels (cytokine panels)
PEGylated peptide: activated Fibrinopeptide A with Poly Ethylene Glycol added to the carboxy terminus (ADSGEGDFLAEGGGVR-{PEG}; reading uncertain; UniProt P02671 20-35, looked up)	little or no response; also recorded: no activity	decrease any measurable activity	–	–
SEETKENERFTV [imf-C3]	–	–	no results	did not demonstrate in any changes
